This note sets out measurements from patent publication US20220009914A1, “Analogs of Nitrofuran Antibiotics to Combat Resistance” (The Trustees of Indiana University, priority 2020, published 2022).

Test [1] deals with T1, E. coli GroEL/ES (Escherichia coli, UniProt P0A6F5).
T1 construct: made in house; host or cells: GroEL in NEB 5-alpha E. coli; GroES in E. coli BL21 (DE3)
Description: GroEL/ES-mediated dMDH refolding assay in the presence of E. coli NfsB nitroreductase. In kind it is biochemical. To be noted: for GroEL/ES inhibition in words: in the presence of E. coli NfsB. The procedure:
Evaluating compounds for inhibition in the GroEL/ES-mediated dMDH refolding assay and native MDH activity counter-screen in the presence of E. coli NfsB nitroreductase. These assays were performed nearly identically to those mentioned above, but with a couple distinct modifications. For both assays, 10 μg/mL of the E. coli NfsB nitroreductase enzyme (Sigma product #N9284) was added to the initial GroEL/ES-dMDH solution. For the GroEL/ES-dMDH refolding assay, after stamping with compounds, 10 μL of a 2.4 mM NADH solution was added, followed by a 10 minute incubation period at 37° C. to bioactivate the nitrofuran analogs. The remainder of the assay was conducted as in our standard protocol where no NfsB nitroreductase was present. […] For the native MDH activity counter-screen in the presence of E. coli NfsB nitroreductase, the assay was performed as described above for the GroEL/ES-dMDH refolding assay with NfsB; however, compound addition to the assay plates was conducted after the EDTA quench step, followed by a 10 minute incubation period at 37° C. to bioactivate the nitrofuran analogs. […] Results presented represent the averages of IC50 values obtained from at least four replicates in each assay.
Evaluating analogs for inhibiting GroEL/ES-mediated substrate refolding functions in the presence of the E. coli NfsB type-1 nitroreductase. […] However, our standard GroEL/ES-mediated refolding assays and native substrate reporter counter-screens were conducted without nitroreductases present.

Test [2] deals with Acinetobacter baumannii strain 2208 (ATCC 19606). As to the kind of experiment: bacterial proliferation assay, A. baumannii. Format: cell-based. To be noted: ATCC19606, read-out: Bacterial Proliferation EC50 A. baumannii. As for the experimental part: All compounds were evaluated for inhibiting the proliferation of E. coli and each of the ESKAPE bacteria. Results presented represent the averages of EC50 values obtained from at least four replicates. Evaluating compounds for inhibition of bacterial cell proliferation.
Growth Media: E. coli were grown with LB medium and all ESKAPE bacteria were grown in Brain Heart Infusion (BHI) medium (Becton, Dickinson and Company), with all liquid cultures supplemented with 25 mg/L Ca^2+ and 12.5 mg/L Mg^2+ to mimic physiological free concentrations of these cations. A 10 mg/mL Ca^2+ stock solution was prepared by dissolving 1.84 g of CaCl2.2H2O in 50 mL of deionized water, and a 10 mg/mL Mg^2+ stock solution was prepared by dissolving 4.18 g of MgCl2.6H2O in 50 mL deionized water—filter sterilized using 0.2 μm cellulose-acetate filters. 2.5 mL of the sterile 10 mg/mL Ca^2+ stock and 1.25 mL of the sterile 10 mg/mL Mg^2+ stock solutions were added per 1 L of autoclaved LB or BHI media to obtain 25 mg/L Ca^2+ and 12.5 mg/L Mg^2+ ions, respectively.
General Assay Protocol: Stock bacterial cultures were streaked onto LB or BHI agar plates and grown overnight at 37° C. Fresh aliquots of cation supplemented media were inoculated with single bacterial colonies and the cultures were grown overnight at 37° C. with shaking (240 rpm). The following morning, cultures were diluted 10-fold into fresh media and grown at 37° C. until bacteria had reached mid-log phase growth (OD600˜0.4-0.6). The cultures were then diluted into fresh media to achieve final OD600 readings of 0.017. Aliquots of these diluted cultures (30 μL) were added to clear, flat-bottom 384-well polystyrene plates that were previously stamped with 0.5 μL of test compounds in 20 μL of media (yielding initial OD600=0.01 bacterial cultures). All compounds were tested in dose-response with concentration ranges during the proliferation assays from 100 μM to 46 nM (3-fold dilution series). A second set of baseline control plates were prepared analogously, but without any bacteria added, to correct for possible compound absorbance and/or precipitation. […] Plates were then read at 600 nm using a Molecular Devices SpectraMax Plus384 microplate reader. […] Results presented represent the averages of EC50 values obtained from at least four replicates.
Evaluating analogs for inhibiting the growth of E. coli and the ESKAPE bacteria. Analogs were initially tested for antibacterial efficacy against representative strains of antibiotic-sensitive E. coli and the ESKAPE bacteria. To determine compound efficacy, bacterial proliferation assays were carried out in liquid media culture supplemented with physiological concentrations of free calcium and magnesium cations. For these assays, bacterial cultures (OD600=0.01) were exposed to test compounds in 8-point, 3-fold dilution series (100 μM to 46 nM concentration range), in 384-well plates. After addition of compounds to cultures, the plates were sealed with Breathe-Easy gas permeable membranes and allowed to grow to mid-log phase (OD600˜0.4-0.6), whereupon final OD600 readings were taken to assess for bacterial growth and inhibition.

The mark [3] stands for this setting: with E. coli NfsB nitroreductase, read-out: NfsB-GroEL/ES-dMDH Refolding IC50.

Where two headings read alike, the source gives them in different places. Some results are limits rather than exact numbers.

T1 sequence (P0A6F5 2-548): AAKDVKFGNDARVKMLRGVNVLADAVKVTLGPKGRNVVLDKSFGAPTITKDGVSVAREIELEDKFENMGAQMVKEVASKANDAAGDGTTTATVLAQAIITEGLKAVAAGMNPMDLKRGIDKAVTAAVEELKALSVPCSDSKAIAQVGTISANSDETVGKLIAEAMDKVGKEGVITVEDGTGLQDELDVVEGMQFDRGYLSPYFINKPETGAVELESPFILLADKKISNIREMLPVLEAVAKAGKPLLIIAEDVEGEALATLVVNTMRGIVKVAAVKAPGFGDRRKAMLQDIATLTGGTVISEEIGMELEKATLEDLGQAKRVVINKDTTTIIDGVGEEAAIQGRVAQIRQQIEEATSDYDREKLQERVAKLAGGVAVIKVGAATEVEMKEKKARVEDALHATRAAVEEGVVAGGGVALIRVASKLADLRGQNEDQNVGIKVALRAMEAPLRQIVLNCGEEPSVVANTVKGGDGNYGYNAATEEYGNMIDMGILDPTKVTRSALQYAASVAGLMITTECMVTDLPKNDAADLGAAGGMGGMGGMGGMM

As for `O=C(N/N=C/c1ccc(O)c2ncccc12)c1ccc(NS(=O)(=O)c2ccc(Br)cc2)cc1` [Compound 14, 4-bromo-N-(4-(2-((8-hydroxyquinolin-5-yl)methylene)hydrazine-1-carbonyl)phenyl)benzenesulfonamide], the IC50 in test [1] stood at 3.6 µM. Further, the EC50 in test [2] came to 84 µM.
As for `O=C(N/N=C/c1ccc([N+](=O)[O-])o1)c1ccc(Cl)s1` [Compound 17, 5-chloro-N′-((5-nitrofuran-2-yl)methylene)thiophene-2-carbohydrazide], in test [1], the “GroEL/ES inhibition in words” value is “most potent at inhibiting GroEL/ES in the presence of NfsB”. Moreover, the IC50 in test [1] (setting [3]) is 3.2 µM. The EC50 in test [2] stood at 72 µM.
Regarding `O=C(N/N=C/c1ccc(O)c2ncccc12)c1cccc2ccccc12` [Compound 9, N′-((8-hydroxyquinolin-5-yl)methylene)-1-naphthohydrazide], the IC50 in test [1] was determined as 7.7 µM. The EC50 in test [2] is > 100 µM.
Regarding `O=C(N/N=C/c1cccc2ncccc12)c1ccccc1` [Compound 32, N′-(quinolin-5-ylmethylene)benzohydrazide], the IC50 in test [1] is > 83 µM. Further, in test [2], the EC50 is > 100 µM.
As to `COc1ccc(C(=O)N/N=C/c2ccco2)cc1` [Compound 39, N′-(furan-2-ylmethylene)-4-methoxybenzohydrazide], the IC50 in test [1] is > 83 µM. Moreover, the EC50 in test [2] was > 100 µM.
With `O=C(N/N=C/c1ccc(O)c2ncccc12)c1ccc(Cl)s1` [Compound 4, 5-chloro-N′-((8-hydroxyquinolin-5-yl)methylene)thiophene-2-carbohydrazide], in test [1], the IC50 amounted to 4 µM. The EC50 in test [2] is > 100 µM.
Take `O=C(N/N=C/c1ccc([N+](=O)[O-])o1)c1ccc(O)cc1` [Nifuroxazide, reference compound]: the “GroEL/ES inhibition in words” value in test [1] is given as “weak to moderate GroEL/ES inhibitors”. Also, in test [1] (setting [3]), the IC50 came to 19 µM. Further, the EC50 in test [2] is > 100 µM.
As for `COc1ccc(C(=O)N/N=C/c2cccc3ncccc23)cc1` [Compound 31, 4-methoxy-N′-(quinolin-5-ylmethylene)benzohydrazide], the IC50 in test [1] was > 83 µM. Further, the EC50 in test [2] is > 100 µM.
As to `CCN(CC)S(=O)(=O)c1cccc(C(=O)N/N=C/c2ccc([N+](=O)[O-])o2)c1` [Compound 25, N,N-diethyl-3-(2-((5-nitrofuran-2-yl)methylene)hydrazine-1-carbonyl)benzenesulfonamide], in test [1], the IC50 stood at 6 µM. In test [2], the EC50 was > 100 µM.
For the molecule `O=C(N/N=C/c1ccc([N+](=O)[O-])o1)c1ccccc1` [Compound 18, N′-((5-nitrofuran-2-yl)methylene)benzohydrazide], the IC50 in test [1] (setting [3]) amounted to 12 µM. Further, the EC50 in test [2] was > 100 µM.
With `O=C(N/N=C/c1ccc(O)c2ncccc12)c1ccc(O)cc1` [Compound 7, 4-hydroxy-N′-((8-hydroxyquinolin-5-yl)methylene)benzohydrazide], the IC50 in test [1] came out at 16 µM. Moreover, the EC50 in test [2] amounted to 71 µM.
With `COc1ccc(C(=O)N/N=C/c2ccc(O)c3ncccc23)cc1` [Compound 1, N′-((8-hydroxyquinolin-5-yl)methylene)-4-methoxybenzohydrazide], the IC50 in test [1] turned out to be 66 µM. Moreover, the EC50 in test [2] is > 100 µM.
As for `COc1ccc(C(=O)N/N=C/c2ccc([N+](=O)[O-])o2)cc1` [Compound 20, 4-methoxy-N′-((5-nitrofuran-2-yl)methylene)benzohydrazide], the IC50 in test [1] (setting [3]) turned out to be 10 µM. Moreover, the EC50 in test [2] was > 100 µM.
As to `CCOc1ccc(S(=O)(=O)Nc2ccc(C(=O)N/N=C/c3ccc([N+](=O)[O-])o3)cc2)cc1` [Compound 28, 4-ethoxy-N-(4-(2-((5-nitrofuran-2-yl)methylene)hydrazine-1-carbonyl)phenyl)benzenesulfonamide], in test [1], the IC50 was determined as 39 µM. In test [2], the EC50 was > 100 µM.
Consider `O=C1CN(/N=C/c2ccc([N+](=O)[O-])o2)C(=O)N1` [Nitrofurantoin, reference compound], for which the “GroEL/ES inhibition in words” value in test [1] is on record as “weak to moderate GroEL/ES inhibitors”. Besides, in test [1] (setting [3]), the IC50 is 84 µM. Also, in test [2], the EC50 is > 100 µM.
As to `O=C(N/N=C/c1cccc2ccccc12)c1ccccc1` [Compound 34, N′-(naphthalen-1-ylmethylene)benzohydrazide], in test [1], the IC50 is > 83 µM. Further, the EC50 in test [2] was > 100 µM.
In the case of `CN(C)c1ccc(C(=O)N/N=C/c2ccc([N+](=O)[O-])o2)cc1` [Compound 21, 4-(dimethylamino)-N′-((5-nitrofuran-2-yl)methylene)benzohydrazide], the IC50 in test [1] (setting [3]) was determined as 12 µM. Moreover, the EC50 in test [2] is > 100 µM.
